Measurements published in paper PMC6770071, “XIAP as a Target of New Small Organic Natural Molecules Inducing Human Cancer Cell Death” (Cancers, 2019).
≈ marks a conversion by molar mass, not a printed value. Where two headings read alike, the source gives them in different places.

Key:
[1] = system: U373 cells; assay: TMRM mitochondrial membrane potential analysis, U373 cells; format: cell-based, human; conditions: U373, increasing time; gibbilimbol B/eriopodol A 30 µg/mL, erioquinol 10 µg/mL
Description: (§1) Using published protocols, mitochondria of MCF7 and U373 cells were labeled using TMRM, a voltage-sensitive cationic lipophilic dye, partitioning and accumulating in the mitochondrial matrix based upon the Nernst equation. After treatments, cells were trypsinised, counted and incubated with 100 nM TMRM for 30 min at 37 °C. Fluorescence was measured by using a Glomax Multi Detection System microplate reader (Promega), excitation wavelength: 525 nm; emission wavelength: 580–640 nm). After background subtraction, the data were normalised on cell number.

[2] = system: U373 cells; assay: ROS detection with DCFH-DA, U373 cells; format: cell-based, human; conditions: U373, 6 h; gibbilimbol B/eriopodol A 30 µg/mL, erioquinol 10 µg/mL
Description: (§2) MCF7 or U373 cells cultured in 120-mm coverslips were exposed to 30 µM DCFH-DA (0.1 M PB, pH 7.4) and fixed in 4% paraformaldehyde for 20 min. For fluorescence detection, coverslips were mounted on glass slides and observed with a laser-scanning confocal microscope (TCS SP8 System and Application suite X, Leica Microsystems). DAPI and fluorescein phalloidin (nuclei and cytoskeleton detection, respectively) staining was also used.

[3] = system: MCF10 cells; assay: MTT cell viability assay, MCF10 cells; format: cell-based; conditions: Homo sapiens, 24 h, non-tumourigenic breast MCF10 cells
Description: Human U373 glioma, MCF7 breast cancer, A549 lung cancer and PC-3 prostate cancer cells were grown in Dulbecco’s Modified Eagle Medium (DMEM), supplemented with 10% foetal bovine serum, 2 mM glutamine, 100 U/mL penicillin/streptomycin, at 37 °C in a humidified atmosphere containing 5% CO2 (logarithmic growth phase, routine passages every 3 days). The human breast epithelial cell line MCF10 was cultured in DMEM/F12 Ham’s Mixture supplemented with 5% horse serum, epithelial growth factor 20 ng/mL, insulin 10 μg/mL, hydrocortisone 0.5 mg/mL, cholera toxin 100 ng/mL, and 100 U/mL penicillin/streptomycin. […]
(§3) U373, MCF7, A549, PC-3, HUVEC, and MCF10 cell viability was determined by MTT assay using published protocols. MTT absorbance was quantified spectrophotometrically using a Glomax Multi Detection System microplate reader (Promega, Milano, Italy).
Statistical significance of raw data between the groups in each experiment was evaluated using unpaired Student’s t-test (single comparisons) or one-way ANOVA followed by the Newman-Keuls post-test (multiple comparisons). The IC50 and Emax concentration were determined by non-linear regression curve analysis of the concentration-effect responses. […] The results were expressed as means ± standard error of mean (SEM) of the indicated n values.

[4] = system: MCF7 cells; assay: MTT cell viability assay, MCF7 cells; format: cell-based, human; conditions: for IC50: Homo sapiens, MTT; for loss of cell viability (MTT) with simultaneous 50 µM Z-VAD-(OMe)-FMK: MCF7, 6 h, gibbilimbol B/eriopodol A 30 µg/mL, erioquinol 10 µg/mL
Description: Human U373 glioma, MCF7 breast cancer, A549 lung cancer and PC-3 prostate cancer cells were grown in Dulbecco’s Modified Eagle Medium (DMEM), supplemented with 10% foetal bovine serum, 2 mM glutamine, 100 U/mL penicillin/streptomycin, at 37 °C in a humidified atmosphere containing 5% CO2 (logarithmic growth phase, routine passages every 3 days). The human breast epithelial cell line MCF10 was cultured in DMEM/F12 Ham’s Mixture supplemented with 5% horse serum, epithelial growth factor 20 ng/mL, insulin 10 μg/mL, hydrocortisone 0.5 mg/mL, cholera toxin 100 ng/mL, and 100 U/mL penicillin/streptomycin. HUVEC were grown in EGM-2 Endothelial Cell Growth Medium-2 BulletKit (Lonza, Basel, Switzerland), according to the manufacturer’s protocol.
as §3
Statistical significance of raw data between the groups in each experiment was evaluated using unpaired Student’s t-test (single comparisons) or one-way ANOVA followed by the Newman-Keuls post-test (multiple comparisons). The IC50 and Emax concentration were determined by non-linear regression curve analysis of the concentration-effect responses. Potency values among concentration-response curves were compared with the F-test. Data belonging from different experiments were represented and averaged in the same graph. The GraphPad Prism software package (GraphPad Software, San Diego, CA, USA) was used. The results were expressed as means ± standard error of mean (SEM) of the indicated n values.

[5] = system: MCF7 cells; assay: TMRM mitochondrial membrane potential analysis, MCF7 cells; format: cell-based, human; conditions: gibbilimbol B/eriopodol A 30 µg/mL, erioquinol 10 µg/mL; for TMRM fluorescence (mitochondria membrane potential): MCF7, increasing time; for time to full response of TMRM fluorescence decrease: MCF7
Description: as §1

[6] = system: U373 cells; assay: Confocal co-localisation of cytochrome c with COX IV, U373 cells; format: cell-based, human; conditions: U373, 3 h; gibbilimbol B/eriopodol A 30 µg/mL, erioquinol 10 µg/mL
Description: (§4) Using published protocols, MCF7 or U373 cells cultured in 120-mm coverslips were fixed in 4% paraformaldehyde in 0.1 M PB, pH 7.4, for 10 min. Cells were pre-incubated for 1 h min with 5% of normal goat serum (Life Technologies, Monza, Italy) in 0.1 M PB (pH 7.4) containing 0.1% Triton X-100, before overnight incubation with the rabbit monoclonal anti-cleaved caspase 7 (Cell Signaling Technology, Danvers, MA, USA). In double-label immunofluorescence experiments, the mouse monoclonal anti-cytochrome c primary antibody (Cell Signaling Technology) was used in conjunction with the rabbit monoclonal primary antibody directed to COX IV (Cell Signaling Technology). For fluorescence detection, coverslips were stained with the appropriate Alexa Fluor secondary antibodies (Life Technologies) and mounted on glass slides in a ProLong Gold Antifade Mountant (Life Technologies). DAPI and/or fluorescein phalloidin (cytoskeleton detection) staining was also used. Cells were analysed with a DMI4000 B automated inverted microscope equipped with a DCF310 digital camera (Leica Microsystems, Wetzlar, Germany). When indicated, confocal imaging was performed with a TCS SP8 System (Leica Microsystems). Image acquisitions were controlled by the Leica Application Suite X.

[7] = system: MCF7 cells; assay: MTT assay and cleaved-caspase 7 western blot in XIAP siRNA-transfected MCF7 cells treated with compounds; format: cell-based, human; conditions: MCF7, XIAP siRNA 50 nM 24 h; for toxicity (MTT absorbance) after XIAP downregulation: then 6 h, gibbilimbol B/eriopodol A 30 μg/mL, erioquinol 10 μg/mL
Description: as §3
(§5) Using published protocols, MCF7 and MCF10 cells were homogenised in RIPA lysis buffer, supplemented with a cocktail of protease inhibitors (cOmplete; Roche Diagnostics, Milano, Italy). Equal amounts of proteins were separated by 4–20% SDS-polyacrylamide gel electrophoresis (Criterion TGX Stain-free precast gels and Criterion Cell system; Bio-Rad, Hercules, CA, USA) and transferred onto nitrocellulose membrane using a Bio-Rad Trans-Blot Turbo System. When indicated, the membranes were probed using the rabbit monoclonal anti-cleaved caspase 7 and anti-XIAP (Cell Signaling Technology) primary antibodies. After the incubation with the appropriate horseradish-peroxidase-conjugated secondary antibody (Cell Signaling Technology), bands were visualised using the Clarity Western ECL substrate with a ChemiDoc MP imaging system (Bio-Rad). To monitor for potential artefacts in loading and transfer among samples in different lanes, the blots were routinely treated with the Restore Western Blot Stripping Buffer (ThermoFisher Scientific) and re-probed with the goat anti-Lactate dehydrogenase (LDH)-A (Santa Cruz Biotechnology) and the mouse anti-vinculin primary antibodies. The stain-free gel was used as loading control as well. When appropriated, bands were quantified for densitometry using the Bio-Rad Image Lab software.
Gene silencing of XIAP in MCF7 cells was performed as previously published. Briefly, according to the manufacturer’s protocol, iBONI siRNA Pool (Riboxx, Radebeul, Germany) targeting human XIAP were mixed to Lipofectamine RNAiMax transfection reagent (Life Technologies). iBONI siRNA Pool negative control (Riboxx) (scrambled targeting siRNAs) was also used. The mix was added to cultured MCF7 cells at a siRNA concentration of 50 nM for 24 h.

[8] = system: MCF7 cells; assay: ROS detection with DCFH-DA, MCF7 cells; format: cell-based, human; conditions: MCF7, 6 h; gibbilimbol B/eriopodol A 30 µg/mL, erioquinol 10 µg/mL
Description: as §2

[9] = system: caspase 9 and 7; assay: Cleaved-caspase 9 and 7 western blot / immunofluorescence in MCF7 cells; format: cell-based, human; conditions: gibbilimbol B/eriopodol A 30 µg/mL, erioquinol 10 µg/mL; for cleaved-caspase 7 staining, immunofluorescence: MCF7, 3 and 6 h; for caspase activation, western blot: MCF7, 3 h and 6 h
Description: as §4, §5

[10] = MCF7, 24 h (Table 1), read-out: IC50 (μg/mL) MCF7 Cells
[11] = MCF7, 6 h exposure (time-response), read-out: IC50
[12] = MCF7, 12 h exposure (time-response), read-out: IC50

SMILES	TMRM fluorescence (mitochondria membrane potential) [1]	ROS (DCFH-DA staining) [2]	IC50 [3] [µg/mL]	IC50 [4, 10] [µg/mL]	IC50 [4, 11] [µg/mL]	IC50 [4, 12] [µg/mL]	IC50 ([4]; MCF7, 24 h exposure (time-response), read-out: IC50) [µg/mL]	loss of cell viability (MTT) with simultaneous 50 µM Z-VAD-(OMe)-FMK [4]	concentration-dependent inhibition of MTT absorbance with 50 µM necrostatin-1 and 10 µM ferrostatin-1 ([4]; MCF7, 24 h, 2 h pre-treatment with inhibitors)	TMRM fluorescence (mitochondria membrane potential) [5]	time to full response of TMRM fluorescence decrease [5] [h]	subcellular location of cytochrome c [6]	toxicity (MTT absorbance) after XIAP downregulation [7]	ROS (DCFH-DA staining) [8]	cleaved-caspase 7 staining, immunofluorescence [9]	caspase activation, western blot [9]	caspase 7 activity after XIAP silencing ([7]; then 30 μg/mL for 6 h)
CCCCCC/C=C\CCC1(O)C=CC(=O)C=C1 [Erioquinol, (Z)-4-(dec-3′-enyl)-4-hydroxycyclohexa-2,5-dien-1-one]	comparable decrease in TMRM fluorescence vs. control	marked accumulation of ROS	1.7 (≈ 6.84 µM)	2.63 (≈ 10.6 µM)	14.7 (≈ 59.3 µM)	4.25 (≈ 17.1 µM)	1.93 (≈ 7.77 µM)	did not affect	did not change	comparable decrease in TMRM fluorescence vs. control	≤ 1	release of cytochrome c	significantly enhanced the toxicity	marked accumulation of ROS	positive cells were absent	did not display any sign of caspase 7 activity	–
CCCCCC/C=C/CCc1ccc(O)cc1 [Gibbilimbol B, (E)-4-(dec-3′-enyl)phenol]	comparable decrease in TMRM fluorescence vs. control	absent	17.1 (≈ 73.6 µM)	16.4 (≈ 70.8 µM)	20.3 (≈ 87.4 µM)	27.4 (≈ 118 µM)	–	significantly inhibited	–	comparable decrease in TMRM fluorescence vs. control	≤ 1	release of cytochrome c	significantly enhanced the toxicity	absent	intensive cleaved-caspase 7 staining	activation of caspase 9 and 7	robustly increased
